Source: patent publication US12351597B2, “Substituted biphenyl or phenylheteroaryl-mannosides as antagonists of FimH” (GLAXOSMITHKLINE INTELLECTUAL PROPERTY DEVELOPMENT LIMITED, priority 2019, dated 2025)

How the values were obtained:
[1] = Rat pharmacokinetics (IV infusion 1 mg/kg, then PO 5 mg/kg; blood and urine); type: in vivo, Male Wistar Han rats; settings: for PK DNAUC h * uM (DNAUC oral, dose normalized): PO 5 mg/kg, blood, AUC divided by dose in mg/kg; for bioavailability: male, Wistar Han, whole blood, oral bioavailability from dose-normalized AUC, PO 5 mg/kg vs IV infusion 1 mg/kg
From the text: General Assays for Obtaining AUC Oral h*μm, % F, and Ue % PO Values
Male Wistar Han rats were purchased from Vital River Laboratory Animal Technology Co. Ltd (Beijing, China). The animals were approx. 6-8 weeks old with body weights of 200-300 g on the dosing date. The animals were housed in a 12-hour light/12-hour dark cycle environment and had free access to food and water. All animals were fed prior to dosing. Studies were approved by the Pharmaron Institutional Animal Care and Use Committee (IACUC).
Test article was administered as an intravenous infusion for 1 hour (1 mg/kg) at 5 mL/kg/h. After 48 h, animals received a single oral dose (5 mg/kg, free form) at a dose volume of 10 mL/kg, respectively. Blood samples were collected at various time points after IV infusion and PO administrations. Urine samples were collected at various time points after IV infusion and PO administrations (for some compounds).
Test article was dissolved in DMSO with vortexing and sonification to obtain a stock solution. An aliquot of the stock solution was mixed with 10% HP-β-CD in saline with vortexing to obtain a solution with concentration at 0.2 mg/mL of test article.
Test article was added into 1% Methyl Cellulose with vortexing and sonication to obtain a homogeneous suspension with concentration at 0.5 mg/mL of test article.
For IV infusion (1 mg/kg) administration, blood samples were collected from each animal at 0, 0.25, 0.5, 0.75, 1, 1.08, 1.25, 1.5, 1.75, 2, 3, 5, 8, 12, 24 hour post-dose.
For PO (5 mg/kg) administration, blood samples were collected from each animal at 0, 0.25, 0.5, 1, 1.5, 2, 3, 4, 6, 8, 12, 24 hour post-dose.
Blood samples (50 μL) were collected from each animal via jugular vein. These blood samples were placed into tubes containing K2EDTA. Whole blood was mixed with same volume of water and inverted several times. The blood samples were stored at −75±15° C. until analysis.
For IV infusion (1 mg/kg) administration, urine samples were collected from each animal at 0-4, 4-8, 8-12, 12-24 hour post-dose.
For PO (5 mg/kg) administration, urine samples were collected (for some compounds) from each animal at 0-4, 4-8, 8-12, 12-24 hour post-dose.
55 μL of standards, 55 μL of QC samples or 55 μL of unknown samples (50 μL of blood or urine with 5 μL 50% acetonitrile) were mixed to 200 μL of acetonitrile containing IS (dexamethasone) to precipitate proteins. Then the samples were vortexed for 30 sec. After centrifugation at 4° C., 4700 rpm for 30 min, and 5 μL of the supernatant was injected into the LC-MS/MS system for quantitative analysis.
Test article blood and urine concentrations for each animal following IV infusion at 1 mg/kg and PO at 5 mg/kg were used to calculate pharmacokinetic parameters by employing a non-compartmental analysis (Phoenix™ WinNonlin® 7.0). The linear trapezoidal algorithm was used for AUC calculation. • AUC oral h*uM: Area under the curve (AUC) of drug concentration in blood vs. time (units: h*μM) following oral administration • DNAUC Dose normalized area under the curve is calculate by divided the area under the curve divided by the dose in the mg/kg • % F: Oral bioavailability (%) derived from the ratio of dose-normalized AUC following PO and IV administration • Ue % PO: Percentage of oral dose eliminated unchanged in urine or an estimate of that parameter generated from using the percentage of the iv dose eliminated in the urine times the oral bioavailability Production Methods: […]

FimH = biological target: T1, FimH (Escherichia coli, UniProt Q1R2J4); assay: Hemagglutination inhibition assay (HAI); type: cell-based; settings: HAI titer / EC>90: concentration reducing bacterial agglutination of guinea pig red blood cells by >90%; UTI89 bacteria
T1 construct: endogenous in cells; host or cells: E. coli UTI89 whole bacteria (piliated), with guinea pig red blood cells
From the text: “HAI titer or EC>90” is that concentration of the FimH inhibitor/antagonist which reduces the bacterial agglutination of guinea pig red blood cells by greater than 90%.
The activities of the Examples 1-40 compounds above as FimH antagonists/inhibitors were obtained by the following assay(s), and values are provided in Table 1. The values not provided mean that the activities have not yet been tested.
Hemagglutination Inhibition Assay (HAI)
The hemagglutination inhibition (HAI) assay was performed with UTI89 bacteria and guinea pig red blood cells, as previously described (S. J. Hultgren, W. R. Schwan, A. J. Schaeffer, J. L. Duncan Infect. Immun. 1986, 54, 613-620 and Jarvis, C.; Han, Z.; Kalas, V.; Klein, R.; Pinkner, J. S.; Ford, B.; Binkley, J.; Cusumano, C. K.; Cusumano, Z.; Mydock-McGrane, L.; Hultgren, S. J.; Janetka, J. W., ChemMedChem 2016, 11, 367-373). Values not listed were not tested.

## Cc1cc(-c2cnc(C(F)(F)F)cn2)ccc1O[C@H]1O[C@H](CO)[C@@H](O)[C@H](O)[C@@H]1O [Example 1, (2R,3S,4S,5S,6R)-2-(Hydroxymethyl)-6-(2-methyl-4-(5-(trifluoromethyl)pyrazin-2-yl)phenoxy)tetrahydro-2H-pyran-3,4,5-triol]
[1]
  PK DNAUC h * uM (DNAUC oral, dose normalized): “+++” (>0.2 h · μM)
  bioavailability: > 30%
[1]; percentage of oral dose eliminated unchanged in urine, or estimate from IV urinary % times oral bioavailability
  Ue % (Ue % po): “+++” (>5%)
FimH
  HAI nM: “++++” (<50)

## OC[C@H]1O[C@H](Oc2c(F)cc(-c3cnc(C(F)(F)F)cn3)cc2C(F)(F)F)[C@@H](O)[C@@H](O)[C@@H]1O [Example 2, (2R,3S,4S,5S,6R)-2-(2-Fluoro-6-(trifluoromethyl)-4-(5-(trifluoromethyl)pyrazin-2-yl)phenoxy)-6-(hydroxymethyl)tetrahydro-2H-pyran-3,4,5-triol]
FimH
  HAI nM: “++++” (<50)

## OC[C@H]1O[C@H](Oc2ccc(-c3cnc(C(F)(F)F)cn3)cc2C(F)(F)F)[C@@H](O)[C@@H](O)[C@@H]1O [Example 3, (2R,3S,4S,5S,6R)-2-(Hydroxymethyl)-6-(2-(trifluoromethyl)-4-(5-(trifluoromethyl)pyrazin-2-yl)phenoxy)tetrahydro-2H-pyran-3,4,5-triol]
[1]
  PK DNAUC h * uM (DNAUC oral, dose normalized): “++” (0.1 ≤ × ≤ 0.2h · μM)
  bioavailability: 10 to 30%
FimH
  HAI nM: “+++” (50-200)

## Cc1cc(-c2cc(F)cc(C#N)c2)ccc1O[C@H]1O[C@H](CO)[C@@H](O)[C@H](O)[C@@H]1O [Example 4, 5-Fluoro-3′-methyl-4′-(((2R,3S,4S,5S,6R)-3,4,5-trihydroxy-6-(hydroxymethyl)tetrahydro-2H-pyran-2-yl)oxy)-[1,1′-biphenyl]-3-carbonitrile]
[1]
  PK DNAUC h * uM (DNAUC oral, dose normalized): “+++” (>0.2 h · μM)
  bioavailability: > 30%
FimH
  HAI nM: “+++” (50-200)

## Cc1cc(-c2cc(C(F)(F)F)ccn2)ccc1O[C@H]1O[C@H](CO)[C@@H](O)[C@H](O)[C@@H]1O [Example 5, (2R,3S,4S,5S,6R)-2-(hydroxymethyl)-6-(2-methyl-4-(4-(trifluoromethyl)pyridin-2-yl)phenoxy)tetrahydro-2H-pyran-3,4,5-triol]
[1]
  PK DNAUC h * uM (DNAUC oral, dose normalized): “+++” (>0.2 h · μM)
  bioavailability: > 30%
FimH
  HAI nM: “+++” (50-200)

## COc1ccc(-c2ccc(O[C@H]3O[C@H](CO)[C@@H](O)[C@H](O)[C@@H]3O)c(C)c2)cn1 [Example 8]
FimH
  HAI nM: “+++” (50-200)

## Cc1cc(-c2ccc(N3CCCC3)nc2)ccc1O[C@H]1O[C@H](CO)[C@@H](O)[C@H](O)[C@@H]1O [Example 9]
FimH
  HAI nM: “++++” (<50)

## Cc1cc(-c2ccnc(N(C)C)c2)ccc1O[C@H]1O[C@H](CO)[C@@H](O)[C@H](O)[C@@H]1O [Example 10]
FimH
  HAI nM: “++++” (<50)

## N#Cc1cc(F)cc(-c2ccc(O[C@H]3O[C@H](CO)[C@@H](O)[C@H](O)[C@@H]3O)c(Cl)c2)c1 [Example 11]
FimH
  HAI nM: “+++” (50-200)

## OC[C@H]1O[C@H](Oc2ccc(-c3nccc(C(F)(F)F)n3)cc2C(F)(F)F)[C@@H](O)[C@@H](O)[C@@H]1O [Example 13]
FimH
  HAI nM: “+++” (50-200)

## Cc1cc(-c2ncc(C(F)(F)F)cn2)ccc1O[C@H]1O[C@H](CO)[C@@H](O)[C@H](O)[C@@H]1O [Example 15]
FimH
  HAI nM: “+++” (50-200)

## OC[C@H]1O[C@H](Oc2ccc(-c3cc(C(F)(F)F)ccn3)cc2C(F)(F)F)[C@@H](O)[C@@H](O)[C@@H]1O [Example 18]
FimH
  HAI nM: “+++” (50-200)

## OC[C@H]1O[C@H](Oc2c(F)cc(-c3cc(C(F)(F)F)ccn3)cc2C(F)(F)F)[C@@H](O)[C@@H](O)[C@@H]1O [Example 19]
FimH
  HAI nM: “++++” (<50)

## OC[C@H]1O[C@H](Oc2ccc(-c3cc(C(F)(F)F)c(F)cn3)cc2C(F)(F)F)[C@@H](O)[C@@H](O)[C@@H]1O [Example 20]
FimH
  HAI nM: “+++” (50-200)

## Cc1cc(-c2cnc(C(F)(F)F)c(F)c2)ccc1O[C@H]1O[C@H](CO)[C@@H](O)[C@H](O)[C@@H]1O [Example 21]
FimH
  HAI nM: “+++” (50-200)

## OC[C@H]1O[C@H](Oc2ccc(-c3ncc(C(F)(F)F)cn3)cc2C(F)(F)F)[C@@H](O)[C@@H](O)[C@@H]1O [Example 22]
FimH
  HAI nM: “+++” (50-200)

## Cc1cc(-c2cnccn2)ccc1O[C@H]1O[C@H](CO)[C@@H](O)[C@H](O)[C@@H]1O [Example 23]
FimH
  HAI nM: “+++” (50-200)

## Cc1cc(-c2ccnc(C(F)(F)F)c2)ccc1O[C@H]1O[C@H](CO)[C@@H](O)[C@H](O)[C@@H]1O [Example 24]
FimH
  HAI nM: “+++” (50-200)

## Cc1cc(-c2ccc(C(F)(F)F)nc2)ccc1O[C@H]1O[C@H](CO)[C@@H](O)[C@H](O)[C@@H]1O [Example 26]
FimH
  HAI nM: “+++” (50-200)

## Cc1cc(-c2ccc(C(F)(F)F)cn2)ccc1O[C@H]1O[C@H](CO)[C@@H](O)[C@H](O)[C@@H]1O [Example 27]
FimH
  HAI nM: “+++” (50-200)

## Cc1cc(-c2nccnc2C(F)(F)F)ccc1O[C@H]1O[C@H](CO)[C@@H](O)[C@H](O)[C@@H]1O [Example 29]
FimH
  HAI nM: “+++” (50-200)

## Cc1cc(-c2cnc(F)c(C(F)(F)F)c2)ccc1O[C@H]1O[C@H](CO)[C@@H](O)[C@H](O)[C@@H]1O [Example 31]
FimH
  HAI nM: “+++” (50-200)

## OC[C@H]1O[C@H](Oc2ccc(-c3ccc(C(F)(F)F)cn3)cc2C(F)(F)F)[C@@H](O)[C@@H](O)[C@@H]1O [Example 32]
FimH
  HAI nM: “+++” (50-200)

## OC[C@H]1O[C@H](Oc2ccc(-c3cnc(C(F)(F)F)cn3)cc2Cl)[C@@H](O)[C@@H](O)[C@@H]1O [Example 33]
FimH
  HAI nM: “+++” (50-200)

## Cc1cc(-c2cncc(C(F)(F)F)n2)ccc1O[C@H]1O[C@H](CO)[C@@H](O)[C@H](O)[C@@H]1O [Example 34]
FimH
  HAI nM: “+++” (50-200)

## OC[C@H]1O[C@H](Oc2c(F)cc(-c3ccc(C(F)(F)F)nc3)cc2C(F)(F)F)[C@@H](O)[C@@H](O)[C@@H]1O [Example 35]
[1]
  PK DNAUC h * uM (DNAUC oral, dose normalized): “+” (<01 h · μM)

## OC[C@H]1O[C@H](Oc2c(F)cc(-c3nccc(C(F)(F)F)n3)cc2C(F)(F)F)[C@@H](O)[C@@H](O)[C@@H]1O [Example 36]
FimH
  HAI nM: “++++” (<50)

## OC[C@H]1O[C@H](Oc2ccc(-c3cccc(C(F)(F)F)n3)cc2C(F)(F)F)[C@@H](O)[C@@H](O)[C@@H]1O [Example 39]
FimH
  HAI nM: “+++” (50-200)

## Cc1cc(-c2cccc(C(F)(F)F)n2)ccc1O[C@H]1O[C@H](CO)[C@@H](O)[C@H](O)[C@@H]1O [Example 40]
FimH
  HAI nM: “+++” (50-200)
